Assay results: patent US20230002359A1, “PESTICIDALLY ACTIVE FUSED BICYCLIC HETEROAROMATIC COMPOUNDS” (priority 2019, published 2023)

Tests used:
[1] = test system: Diabrotica Balteata (Corn Root Worm); assay: Example B1: Diabrotica balteata (corn root worm), maize sprouts sprayed, L2 larvae; type: in vivo; conditions: 96 h, application rate of 200 ppm, 4 days after infestation, L2 larvae, read-out: control in at least one of the two categories (mortality or growth inhibition)
In short: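 Larvae at L2 stage, 6 to 10 per well, feed on dried, spray-treated maize sprouts set on agar. Evaluation after 4 days compares mortality and growth inhibition with untreated samples.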

[2] = test system: Chilo suppressalis (Striped Rice Stemborer); assay: Example B3: Chilo suppressalis (striped rice stemborer), artificial diet, L2 larvae; type: in vivo; conditions: 144 h, application rate of 200 ppm, 6 days after infestation, L2 larvae, read-out: control in at least one of the three categories (mortality, anti-feedant effect, or growth inhibition)
In short: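 Diet-incorporation surface assay: aqueous dilutions of 10'000 ppm DMSO stock applied to artificial diet, dried; 6-8 L2 larvae/well; read day 6 post-infestation for mortality, antifeedant effect, growth inhibition vs untreated. Active if any category above untreated.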

[3] = test system: Plutella xylostella (Diamond Back Moth); assay: Example B4: Plutella xylostella (diamond back moth), artificial diet, eggs, 24-well; type: in vivo; conditions: 192 h, application rate of 200 ppm, 8 days after infestation, eggs, read-out: control in at least one of the two categories (mortality or growth inhibition)
Method: 24-well microtiter plates with artificial diet were treated with aqueous test solutions prepared from 10′000 ppm DMSO stock solutions by pipetting. After drying, Plutella eggs were pipetted through a plastic stencil onto a gel blotting paper and the plate was closed with it. The samples were assessed for mortality and growth inhibition in comparison to untreated samples 8 days after infestation.

[4] = test system: Spodoptera littoralis (Egyptian Cotton Leaf Worm); assay: Example B7: Spodoptera littoralis (Egyptian cotton leaf worm), cotton leaf discs sprayed, L1 larvae; type: in vivo; conditions: foliar, 72 h, application rate of 200 ppm, 3 days after infestation, L1 larvae, read-out: control in at least one of the three categories (mortality, anti-feedant effect, or growth inhibition)
In short: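 Read-out: mortality, feeding deterrence and growth inhibition, assessed 3 days after infestation relative to untreated samples. Sprayed, dried cotton leaf discs on agar each received five first-instar (L1) larvae; sprays were aqueous solutions prepared from 10′000 ppm DMSO stocks.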

[5] = test system: Plutella xylostella (Diamondback Moth); assay: Example B9: Plutella xylostella (diamondback moth), artificial diet, eggs, 96-well; type: in vivo; conditions: 216 h, application rate of 500 ppm, 9 days after infestation, read-out: control in mortality
Method: 96-well microtiter plates containing artificial diet were treated with aqueous test solutions, prepared from 10′000 ppm DMSO stock solutions, by a liquid handling robot. After drying, eggs (˜30 per well) were infested onto a netted lid which was suspended above the diet. The eggs hatch and L1 larvae move down to the diet. The samples were assessed for mortality 9 days after infestation.

[6] = test system: Euschistus heros (Neotropical Brown Stink Bug); assay: Example B2: Euschistus heros (neotropical brown stink bug), soybean leaves sprayed, N2 nymphs; type: in vivo; conditions: 120 h, application rate of 200 ppm, 5 days after infestation, N2 nymphs, read-out: control in at least one of the two categories (mortality or growth inhibition)
Method: Soybean leaves on agar in 24-well microtiter plates were sprayed with aqueous test solutions prepared from 10′000 ppm DMSO stock solutions. After drying the leaves were infested with N2 nymphs. The samples were assessed for mortality and growth inhibition in comparison to untreated samples 5 days after infestation.

[7] = test system: Myzus persicae (Green Peach Aphid); assay: Example B5: Myzus persicae (green peach aphid) feeding/contact activity, sunflower leaf discs; type: in vivo; conditions: foliar, 144 h, application rate of 200 ppm, 6 days after infestation
Method: Sunflower leaf discs were placed onto agar in a 24-well microtiter plate and sprayed with aqueous test solutions prepared from 10′000 ppm DMSO stock solutions. After drying, the leaf discs were infested with an aphid population of mixed ages. The samples were assessed for mortality 6 days after infestation.

[8] = test system: Myzus persicae (Green Peach Aphid); assay: Example B6: Myzus persicae (green peach aphid) intrinsic activity, sucrose solution; type: in vivo; conditions: 120 h, test rate of 12 ppm, 5 days after infestation, intrinsic activity, read-out: mortality
In short: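 Mortality was read 5 days after infestation. Aphids on pea seedlings fed through a stretched Parafilm membrane on inverted 24-well plates containing sucrose solution mixed with test compound, which was diluted from 10′000 ppm DMSO stock.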

C[C@@H](c1ncnn1-c1ccc(-c2ncon2)cn1)N(C)c1ncnc2c(C(F)(F)F)cc(Cl)cc12
melting point: 144 to 146 °C

CC(Nc1ncnc2ccc(C(F)(F)F)cc12)c1ncnn1-c1ccc(C#N)cn1 (stereo not shown) [P.64, 6-[5-[1-[[6-(trifluoromethyl)quinazolin-4-yl]amino]ethyl]-1,2,4-triazol-1-yl]pyridine-3-carbonitrile]
percent control (mortality or growth inhibition) at 200 ppm [1]: ≥ 80%
percent control (mortality, anti-feedant effect or growth inhibition) at 200 ppm [2]: ≥ 80%
percent control (mortality or growth inhibition) at 200 ppm [3]: ≥ 80%
percent control (mortality, anti-feedant effect or growth inhibition) at 200 ppm [4]: ≥ 80%
mortality at 500 ppm [5]: ≥ 80%

CC(Nc1ncnc2c(Cl)cc(C(F)(F)F)cc12)c1ncnn1-c1ccc(OC(F)F)cn1 (stereo not shown)
melting point: 240 to 242 °C

CC(Nc1ncnc2c(Cl)nccc12)c1nccnc1-n1nccn1 (stereo not shown) [P.277, 8-chloro-N-[1-[3-(triazol-2-yl)pyrazin-2-yl]ethyl]pyrido[3,4-d]pyrimidin-4-amine]
mortality at 500 ppm [5]: ≥ 80%

C[C@@H](c1ncnn1-c1ccc(-c2nccs2)cn1)N(C)c1ncnc2c(C(F)(F)F)cc(Cl)cc12
melting point: 142 to 144 °C

CC(c1ncnn1-c1ccc(OC(F)F)cn1)N(C)c1ncnc2c(Br)cc(C(F)(F)F)cc12 (stereo not shown)
melting point: 75 to 77 °C

CC(Nc1ncnc2c(C(F)(F)F)cc(C(F)(F)F)cc12)c1ncnn1-c1ccc(C#N)cn1 (stereo not shown) [P.61, 6-[5-[1-[[6,8-bis(trifluoromethyl)quina-zolin-4-yl]amino]ethyl]-1,2,4-triazol-1-yl]pyridine-3-carbonitrile]
percent control (mortality, anti-feedant effect or growth inhibition) at 200 ppm [2]: ≥ 80%
percent control (mortality or growth inhibition) at 200 ppm [3]: ≥ 80%
percent control (mortality, anti-feedant effect or growth inhibition) at 200 ppm [4]: ≥ 80%
mortality at 500 ppm [5]: ≥ 80%

CC(c1nccnc1-c1ccc(Br)cn1)N(C)c1ncnc2c(Cl)cc(C(F)(F)F)cc12 (stereo not shown)
melting point: 142 to 144 °C

C[C@H](Nc1c(C#N)cnc2c(C(F)(F)F)cc(C(F)(F)F)cc12)c1ncnn1-c1ccc(C#N)cn1
melting point: 204 to 206 °C

C[C@@H](c1ncnn1-c1ccc(C(N)=NO)cn1)N(C)c1ncnc2c(C(F)(F)F)cc(Cl)cc12
melting point: 223 to 225 °C

CC(Nc1c(C#N)cnc2c(C(F)(F)F)cc(C(F)(F)F)cc12)c1ncnn1-c1ccc(C#N)cn1 (stereo not shown)
melting point: 261 to 263 °C

CC(Nc1ncnc2c(Cl)cc(C(F)(F)F)cc12)c1nccnc1-c1ccc(Br)cn1 (stereo not shown)
melting point: 230 to 232 °C

CC(c1nccnc1-c1ccc(C#N)cn1)N(CC1CC1)c1ncnc2c(C(F)(F)F)cc(Cl)cc12 (stereo not shown)
melting point: 254 to 256 °C

C[C@H](Nc1c(C#N)cnc2c(C(F)(F)F)cc(C(F)(F)F)cc12)c1ncnn1-c1ncccn1
melting point: 203 to 205 °C

CC(c1ncnn1-c1ccc(C#N)cn1)N(C)c1ncnc2c(Cl)c(F)c(Cl)cc12 (stereo not shown)
melting point: 145 to 155 °C

CC(c1nccnc1-c1ccc(C#N)cn1)N(CC1CC1)c1ncnc2c(C(F)(F)F)cc(Br)cc12 (stereo not shown)
melting point: 251 to 253 °C

CC(Nc1ncnc2c(C(F)(F)F)cc(Cl)cc12)c1ncnn1-c1ccc(Br)cn1 (stereo not shown)
melting point: 274 to 276 °C

CC(c1ncnn1-c1ncccn1)N(CC1CC1)c1nc(Cl)nc2c(Br)cc(C(F)(F)F)cc12 (stereo not shown)
melting point: 87 to 89 °C

C[C@@H](c1ncnn1-c1ncccn1)N(C)c1ncnc2c(C(F)(F)F)cc(C3CC3)cc12
melting point: 182 to 184 °C

CC(Nc1ncnc2c(C(F)(F)F)cc(Br)cc12)c1ncnn1-c1ccc(F)cn1 (stereo not shown)
melting point: 282 to 284 °C

CC(Nc1ncnc2c(Cl)cc(Cl)cc12)c1ncnn1-c1ccc(C#N)cn1 (stereo not shown) [P.65, 6-[5-[1-[(6,8-dichloroquinazolin-4-yl)amio]ethyl]-1,2,4-triazol-1-yl]pyridine-3-carbonitrile]
percent control (mortality, anti-feedant effect or growth inhibition) at 200 ppm [2]: ≥ 80%
percent control (mortality or growth inhibition) at 200 ppm [3]: ≥ 80%
mortality at 500 ppm [5]: ≥ 80%

CC(c1ncnn1-c1ncccn1)N(CC1CC1)c1nc(Cl)nc2c(Cl)cc(C(F)(F)F)cc12 (stereo not shown)
melting point: 81 to 83 °C

CC(Nc1ncnc2c(Cl)c(F)c(Cl)cc12)c1ncnn1-c1ccc(C#N)cn1 (stereo not shown)
melting point: 215 to 225 °C

C[C@@H](c1ncnn1-c1ccc(-c2noc(C(F)(F)F)n2)cn1)N(C)c1ncnc2c(C(F)(F)F)cc(Cl)cc12
melting point: 75 to 77 °C

CC(Nc1ncnc2c(C(F)(F)F)cccc12)c1ncnn1-c1ccc(C#N)cn1 (stereo not shown) [P.62, 6-[5-[1-[[8-(trifluoromethyl)quinazolin-4-yl]amino]ethyl]-1,2,4-triazol-1-yl]pyridine-3-carbonitrile]
percent control (mortality, anti-feedant effect or growth inhibition) at 200 ppm [2]: ≥ 80%
percent control (mortality or growth inhibition) at 200 ppm [3]: ≥ 80%
mortality at 500 ppm [5]: ≥ 80%

CC(Nc1ncnc2c(C(F)(F)F)cc(Br)cc12)c1ncnn1-c1ccc(C#N)cn1 (stereo not shown) [P.63, 6-[5-[1-[[6-bromo-8-(trifluoromethyl)quinazolin-4-yl]amino]ethyl]-1,2,4-triazol-1-yl]pyridine-3-carbonitrile]
percent control (mortality, anti-feedant effect or growth inhibition) at 200 ppm [2]: ≥ 80%
percent control (mortality or growth inhibition) at 200 ppm [3]: ≥ 80%
percent control (mortality, anti-feedant effect or growth inhibition) at 200 ppm [4]: ≥ 80%
mortality at 500 ppm [5]: ≥ 80%

C[C@@H](c1ncnn1-c1ncccn1)N(C)c1c(C#N)cnc2c(C(F)(F)F)cc(C(F)(F)F)cc12
melting point: 84 to 86 °C

CC(Nc1nccc2c(C(F)(F)F)cccc12)c1ncnn1-c1ccccn1 (stereo not shown) [P.69, N-[1-[2-(2-pyridyl)-1,2,4-triazol-3-yl]ethyl]-5-(trifluoromethyl)isoquino-lin-1-amine]
mortality at 500 ppm [5]: ≥ 80%

CC(Nc1ncnc2c(C(F)(F)F)cc(Br)cc12)c1ncnn1-c1ccc(Br)cn1 (stereo not shown)
melting point: 214 to 216 °C

C[C@@H](c1ncnn1-c1ccc(C(N)=O)cn1)N(C)c1ncnc2c(C(F)(F)F)cc(C(F)(F)F)cc12
melting point: 183 to 185 °C

Cc1nc(NC(C)c2ncnn2-c2ccc(C#N)cn2)c2cc(C(F)(F)F)cc(C(F)(F)F)c2n1 (stereo not shown) [P.60, 6-[5-[1-[[2-methyl-6,8-bis(trifluoromethyl)quinazolin-4-yl]amino]ethyl]-1,2,4-triazol-1-yl]pyridine-3-carbonitrile]
percent control (mortality, anti-feedant effect or growth inhibition) at 200 ppm [2]: ≥ 80%
percent control (mortality or growth inhibition) at 200 ppm [3]: ≥ 80%
mortality at 500 ppm [5]: ≥ 80%

CC(Nc1ncnc2c(Br)cc(C(F)(F)F)cc12)c1ncnn1-c1ccc(Br)cn1 (stereo not shown)
melting point: 280 to 282 °C

C[C@@H](c1ncnn1-c1ccc(-c2nnn[nH]2)cn1)N(C)c1ncnc2c(C(F)(F)F)cc(Cl)cc12
melting point: 77 to 79 °C

C[C@@H](c1ncnn1-c1ncccn1)N(C)c1ncnc2c(C(F)(F)F)cc(Cl)cc12 [P.23, 6-chloro-N-methyl-N-[(1S)-1-(2-pyrimidin-2-yl-1,2,4-triazol-3-yl)ethyl]-8-(trifluoromethyl)quinazolin-4-amine]
percent control (mortality or growth inhibition) at 200 ppm [1]: ≥ 80%
percent control (mortality or growth inhibition) at 200 ppm [6]: ≥ 80%
percent control (mortality, anti-feedant effect or growth inhibition) at 200 ppm [2]: ≥ 80%
percent control (mortality or growth inhibition) at 200 ppm [3]: ≥ 80%
mortality at 200 ppm [7]: ≥ 80%
mortality at 12 ppm [8]: ≥ 80%
percent control (mortality, anti-feedant effect or growth inhibition) at 200 ppm [4]: ≥ 80%

CC(c1ncnn1-c1ccc(OC(F)F)cn1)N(C)c1ncnc2c(Cl)cc(C(F)(F)F)cc12 (stereo not shown)
melting point: 102 to 104 °C

C[C@@H](c1ncnn1-c1ccc(C#N)cn1)N(C)c1ncnc2c(C(F)(F)F)cc(Cl)cc12 [P.21, 6-[5-[(1S)-1-[[6-chloro-8-(trifluoromethyl)quinazolin-4-yl]-methyl-amino]ethyl]-1,2,4-triazol-1-yl]pyridine-3-carbonitrile]
percent control (mortality or growth inhibition) at 200 ppm [1]: ≥ 80%
percent control (mortality or growth inhibition) at 200 ppm [6]: ≥ 80%
percent control (mortality, anti-feedant effect or growth inhibition) at 200 ppm [2]: ≥ 80%
percent control (mortality or growth inhibition) at 200 ppm [3]: ≥ 80%
mortality at 200 ppm [7]: ≥ 80%
mortality at 12 ppm [8]: ≥ 80%
percent control (mortality, anti-feedant effect or growth inhibition) at 200 ppm [4]: ≥ 80%
